Data: ChEMBL document CHEMBL5465560, “Selectivity Literature for EUbOPEN Chemogenomic Library” (2024)
Values belong to the molecule of their own block, whether it stands above or below them.

How the values were obtained:
[1] = molecular target: Calcium/calmodulin-dependent protein kinase type II subunit gamma (Homo sapiens) (UniProt Q13555); experiment: Selectivity interaction (KinomeScan (DiscoverX)) EUB0000666a CAMK2G; settings: at 10 µM
[2] = molecular target: Dual specificity protein kinase CLK2 (Homo sapiens, UniProt P49760); experiment: Selectivity interaction (KinomeScan (DiscoverX)) EUB0000666a CLK2; settings: at 10 µM
[3] = molecular target: Maternal embryonic leucine zipper kinase (Homo sapiens) (UniProt Q14680); experiment: Selectivity interaction (KinomeScan (DiscoverX)) EUB0000607a MELK; settings: at 10 µM
[4] = molecular target: Myosin light chain kinase, smooth muscle (Homo sapiens, UniProt Q15746); settings: at 10 µM
Chain of Myosin light chain kinase, smooth muscle (Q15746 whole entry): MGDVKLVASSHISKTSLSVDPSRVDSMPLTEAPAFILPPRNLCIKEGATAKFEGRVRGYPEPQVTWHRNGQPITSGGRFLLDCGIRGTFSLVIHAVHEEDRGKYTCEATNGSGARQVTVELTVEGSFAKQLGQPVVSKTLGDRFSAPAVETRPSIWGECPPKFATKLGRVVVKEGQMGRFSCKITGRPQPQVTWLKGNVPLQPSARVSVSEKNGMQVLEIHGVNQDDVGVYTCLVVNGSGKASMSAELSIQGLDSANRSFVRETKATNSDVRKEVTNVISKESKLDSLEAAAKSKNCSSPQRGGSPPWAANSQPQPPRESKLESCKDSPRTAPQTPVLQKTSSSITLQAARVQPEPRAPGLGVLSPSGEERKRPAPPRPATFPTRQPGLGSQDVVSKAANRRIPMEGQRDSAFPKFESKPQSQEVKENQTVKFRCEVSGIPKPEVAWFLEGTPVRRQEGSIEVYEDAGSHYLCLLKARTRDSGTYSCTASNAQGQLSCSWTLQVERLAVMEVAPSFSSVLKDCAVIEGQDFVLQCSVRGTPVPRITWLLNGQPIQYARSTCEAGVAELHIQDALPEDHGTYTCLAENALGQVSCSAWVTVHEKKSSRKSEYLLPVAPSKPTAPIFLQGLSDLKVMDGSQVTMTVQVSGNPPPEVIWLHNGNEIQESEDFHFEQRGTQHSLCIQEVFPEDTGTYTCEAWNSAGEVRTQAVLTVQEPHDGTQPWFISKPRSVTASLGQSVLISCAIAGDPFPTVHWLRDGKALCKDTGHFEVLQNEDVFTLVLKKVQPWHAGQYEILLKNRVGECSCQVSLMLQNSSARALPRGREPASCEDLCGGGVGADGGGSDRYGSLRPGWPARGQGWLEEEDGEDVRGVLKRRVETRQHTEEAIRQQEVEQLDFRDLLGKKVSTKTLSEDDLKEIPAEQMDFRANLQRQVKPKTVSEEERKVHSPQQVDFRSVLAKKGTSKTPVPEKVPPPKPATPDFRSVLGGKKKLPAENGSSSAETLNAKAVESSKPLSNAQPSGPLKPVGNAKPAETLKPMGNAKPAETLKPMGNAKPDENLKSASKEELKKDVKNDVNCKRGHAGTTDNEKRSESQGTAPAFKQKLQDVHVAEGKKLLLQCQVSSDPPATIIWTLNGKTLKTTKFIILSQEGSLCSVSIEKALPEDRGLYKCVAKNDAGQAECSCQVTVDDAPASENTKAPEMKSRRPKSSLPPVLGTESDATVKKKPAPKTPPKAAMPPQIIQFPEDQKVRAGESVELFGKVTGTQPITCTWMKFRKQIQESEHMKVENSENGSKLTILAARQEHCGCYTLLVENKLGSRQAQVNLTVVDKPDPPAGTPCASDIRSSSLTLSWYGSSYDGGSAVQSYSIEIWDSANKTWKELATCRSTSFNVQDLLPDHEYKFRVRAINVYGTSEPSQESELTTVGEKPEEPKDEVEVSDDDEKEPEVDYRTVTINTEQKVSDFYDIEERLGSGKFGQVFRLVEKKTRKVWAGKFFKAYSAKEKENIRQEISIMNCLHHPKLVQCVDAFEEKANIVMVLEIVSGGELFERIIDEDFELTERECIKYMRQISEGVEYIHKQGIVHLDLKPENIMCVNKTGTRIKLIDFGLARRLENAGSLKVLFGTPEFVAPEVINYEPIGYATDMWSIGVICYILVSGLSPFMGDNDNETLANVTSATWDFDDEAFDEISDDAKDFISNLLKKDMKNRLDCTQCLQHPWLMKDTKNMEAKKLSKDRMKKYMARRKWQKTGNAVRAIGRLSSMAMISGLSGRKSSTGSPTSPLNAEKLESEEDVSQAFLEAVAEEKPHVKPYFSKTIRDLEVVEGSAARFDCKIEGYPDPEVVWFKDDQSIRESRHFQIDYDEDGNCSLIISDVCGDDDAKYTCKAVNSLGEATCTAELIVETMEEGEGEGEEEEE

[5] = molecular target: T1, Cyclin-dependent kinase 11A (Homo sapiens) (UniProt Q9UQ88); experiment: Selectivity interaction (ActivX KiNativ screen (kinase selectivity in THP-1 cell lysates)) EUB0000639a CDK11A; type: subcellular; settings: lysate, at 0.01 µM
T1 sequence (whole entry): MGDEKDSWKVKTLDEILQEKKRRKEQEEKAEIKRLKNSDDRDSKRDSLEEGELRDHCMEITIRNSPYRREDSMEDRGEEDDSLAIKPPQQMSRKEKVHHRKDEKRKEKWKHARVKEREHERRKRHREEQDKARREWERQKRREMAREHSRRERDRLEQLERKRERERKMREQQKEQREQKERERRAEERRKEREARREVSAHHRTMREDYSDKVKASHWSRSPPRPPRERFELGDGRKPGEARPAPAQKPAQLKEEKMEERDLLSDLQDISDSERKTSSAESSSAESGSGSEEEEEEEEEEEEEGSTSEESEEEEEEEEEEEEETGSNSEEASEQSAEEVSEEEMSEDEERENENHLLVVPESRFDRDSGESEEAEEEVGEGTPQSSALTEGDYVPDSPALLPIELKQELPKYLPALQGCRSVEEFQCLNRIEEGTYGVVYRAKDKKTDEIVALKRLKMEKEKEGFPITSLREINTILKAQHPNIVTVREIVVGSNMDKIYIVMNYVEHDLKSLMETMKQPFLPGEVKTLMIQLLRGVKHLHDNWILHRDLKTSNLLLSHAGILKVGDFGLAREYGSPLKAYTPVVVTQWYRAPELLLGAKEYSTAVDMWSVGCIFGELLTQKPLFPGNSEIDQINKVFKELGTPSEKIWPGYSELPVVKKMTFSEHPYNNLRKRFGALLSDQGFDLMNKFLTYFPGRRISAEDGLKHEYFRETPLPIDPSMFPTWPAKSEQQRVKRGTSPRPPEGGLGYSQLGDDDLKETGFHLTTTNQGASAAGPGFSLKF

[6] = molecular target: ALK tyrosine kinase receptor (Homo sapiens, UniProt Q9UM73); experiment: Selectivity interaction (ProQinase) EUB0000171b ALK; settings: at 1 µM
[7] = molecular target: Macrophage colony-stimulating factor 1 receptor (Homo sapiens) (UniProt P07333); experiment: Selectivity interaction (Millipore kinase profiler) EUB0000124b CSF1R; settings: at 10 µM
Chain of Macrophage colony-stimulating factor 1 receptor (Homo sapiens) (P07333 whole entry): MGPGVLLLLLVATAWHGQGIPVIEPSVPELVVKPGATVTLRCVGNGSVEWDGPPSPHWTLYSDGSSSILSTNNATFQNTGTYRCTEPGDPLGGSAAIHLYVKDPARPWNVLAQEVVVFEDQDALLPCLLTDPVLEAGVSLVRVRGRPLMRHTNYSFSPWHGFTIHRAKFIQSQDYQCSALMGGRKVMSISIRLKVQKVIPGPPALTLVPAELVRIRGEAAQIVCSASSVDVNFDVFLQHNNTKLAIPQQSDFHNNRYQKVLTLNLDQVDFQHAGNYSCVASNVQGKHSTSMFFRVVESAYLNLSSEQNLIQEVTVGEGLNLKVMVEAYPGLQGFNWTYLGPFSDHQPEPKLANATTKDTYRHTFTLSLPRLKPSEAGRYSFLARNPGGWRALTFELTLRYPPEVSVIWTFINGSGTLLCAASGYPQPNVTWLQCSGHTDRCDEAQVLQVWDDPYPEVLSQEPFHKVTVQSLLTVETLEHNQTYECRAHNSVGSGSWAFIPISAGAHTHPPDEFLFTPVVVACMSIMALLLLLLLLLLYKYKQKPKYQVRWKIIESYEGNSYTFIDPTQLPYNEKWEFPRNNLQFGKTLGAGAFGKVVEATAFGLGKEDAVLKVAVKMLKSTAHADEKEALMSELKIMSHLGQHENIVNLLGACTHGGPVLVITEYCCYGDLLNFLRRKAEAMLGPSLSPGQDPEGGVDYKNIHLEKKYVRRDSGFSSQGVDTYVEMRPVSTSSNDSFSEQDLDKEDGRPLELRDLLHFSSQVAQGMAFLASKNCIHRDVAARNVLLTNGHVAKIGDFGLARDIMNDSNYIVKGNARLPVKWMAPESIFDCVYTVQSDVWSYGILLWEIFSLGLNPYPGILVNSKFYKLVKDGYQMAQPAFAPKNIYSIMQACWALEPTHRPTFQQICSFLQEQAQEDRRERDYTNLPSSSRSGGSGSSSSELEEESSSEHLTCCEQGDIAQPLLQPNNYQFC

[8] = molecular target: Calcium/calmodulin-dependent protein kinase kinase 2 (Homo sapiens) (UniProt Q96RR4); experiment: Selectivity interaction (Ambit KINOMEscan and KiNATiv profiling in Jurkat cells) EUB0000090b CAMKK2; type: cell-based; settings: at 1 µM
Chain of Calcium/calmodulin-dependent protein kinase kinase 2 (Homo sapiens) (Q96RR4 2-588 limits assumed): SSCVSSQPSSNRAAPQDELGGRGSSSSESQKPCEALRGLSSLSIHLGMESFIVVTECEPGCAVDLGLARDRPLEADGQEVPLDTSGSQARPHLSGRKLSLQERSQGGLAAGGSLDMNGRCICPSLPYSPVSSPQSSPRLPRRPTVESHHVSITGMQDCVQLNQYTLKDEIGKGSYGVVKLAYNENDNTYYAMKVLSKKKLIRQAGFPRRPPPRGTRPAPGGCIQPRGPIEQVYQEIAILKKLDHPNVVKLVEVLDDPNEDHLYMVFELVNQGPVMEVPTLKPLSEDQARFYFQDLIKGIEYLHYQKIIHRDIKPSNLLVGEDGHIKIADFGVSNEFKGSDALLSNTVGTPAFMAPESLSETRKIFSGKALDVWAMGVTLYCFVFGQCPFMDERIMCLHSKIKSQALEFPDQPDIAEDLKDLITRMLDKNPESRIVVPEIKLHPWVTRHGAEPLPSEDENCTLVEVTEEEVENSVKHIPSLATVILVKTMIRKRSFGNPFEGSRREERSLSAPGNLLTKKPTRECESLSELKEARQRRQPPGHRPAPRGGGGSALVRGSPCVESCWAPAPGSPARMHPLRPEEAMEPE

[9] = molecular target: Serine/threonine-protein kinase pim-2 (Homo sapiens, UniProt Q9P1W9); experiment: Selectivity interaction (KinomeScan (DiscoverX)) EUB0000655a PIM2; settings: at 10 µM
Chain of Serine/threonine-protein kinase pim-2 (Q9P1W9 whole entry, looked up): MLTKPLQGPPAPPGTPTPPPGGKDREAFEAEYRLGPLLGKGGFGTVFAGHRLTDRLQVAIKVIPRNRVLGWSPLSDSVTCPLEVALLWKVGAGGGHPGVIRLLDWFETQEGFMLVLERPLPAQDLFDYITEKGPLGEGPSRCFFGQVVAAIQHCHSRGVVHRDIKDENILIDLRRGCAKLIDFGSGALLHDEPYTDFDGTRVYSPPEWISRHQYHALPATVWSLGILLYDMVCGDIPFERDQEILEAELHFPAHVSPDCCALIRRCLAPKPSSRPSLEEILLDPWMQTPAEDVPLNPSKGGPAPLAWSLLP

[10] = molecular target: Bone morphogenetic protein receptor type-1A (Homo sapiens, UniProt P36894); experiment: Selectivity interaction (KinomeScan (DiscoverX)) EUB0000045b BMPR1A
Chain of Bone morphogenetic protein receptor type-1A (P36894 whole entry): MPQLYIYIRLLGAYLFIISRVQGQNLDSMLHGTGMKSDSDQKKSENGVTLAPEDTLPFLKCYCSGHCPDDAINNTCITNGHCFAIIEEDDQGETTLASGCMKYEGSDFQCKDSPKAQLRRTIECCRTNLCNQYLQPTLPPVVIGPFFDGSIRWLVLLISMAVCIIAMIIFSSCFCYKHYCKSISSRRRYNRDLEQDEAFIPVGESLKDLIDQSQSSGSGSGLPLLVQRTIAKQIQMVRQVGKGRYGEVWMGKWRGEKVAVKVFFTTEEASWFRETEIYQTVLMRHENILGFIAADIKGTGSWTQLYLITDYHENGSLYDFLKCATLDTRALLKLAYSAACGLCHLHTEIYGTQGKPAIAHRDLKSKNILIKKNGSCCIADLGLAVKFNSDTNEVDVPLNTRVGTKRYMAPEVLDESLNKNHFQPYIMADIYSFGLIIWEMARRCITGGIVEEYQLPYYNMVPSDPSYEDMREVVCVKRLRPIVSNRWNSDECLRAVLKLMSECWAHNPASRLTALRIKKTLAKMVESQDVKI

[11] = molecular target: Muscarinic acetylcholine receptor M5 (Homo sapiens) (UniProt P08912); experiment: Selectivity interaction (GPCR panel (PDSP screen)) EUB0001079a CHRM5; settings: at 10 µM
[12] = molecular target: T2, Alpha-2C adrenergic receptor (Homo sapiens) (UniProt P18825); experiment: Selectivity interaction (GPCR panel (PDSP screen)) EUB0001079a ADRA2C; settings: at 10 µM
T2 sequence (whole entry): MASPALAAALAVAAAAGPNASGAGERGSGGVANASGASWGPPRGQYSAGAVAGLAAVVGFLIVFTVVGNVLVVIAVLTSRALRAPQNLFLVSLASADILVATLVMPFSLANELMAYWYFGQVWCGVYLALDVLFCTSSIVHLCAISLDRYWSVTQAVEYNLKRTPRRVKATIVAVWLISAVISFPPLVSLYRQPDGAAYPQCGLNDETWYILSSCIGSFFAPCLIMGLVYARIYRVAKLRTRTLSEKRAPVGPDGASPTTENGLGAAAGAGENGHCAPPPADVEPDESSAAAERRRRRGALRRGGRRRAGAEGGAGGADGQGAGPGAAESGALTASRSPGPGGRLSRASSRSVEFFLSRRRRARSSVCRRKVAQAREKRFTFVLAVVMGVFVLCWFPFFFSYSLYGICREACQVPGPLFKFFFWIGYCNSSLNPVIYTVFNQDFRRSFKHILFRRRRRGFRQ

[13] = molecular target: Dual specificity mitogen-activated protein kinase kinase 1 (Homo sapiens, UniProt Q02750); experiment: Selectivity interaction (ActivX KiNativ screen (ex vivo kinase selectivity in human PBMCs)) EUB0001619a MAP2K1; type: cell-based; settings: PBMC, at 1 µM
[14] = molecular target: Phosphorylase b kinase gamma catalytic chain, skeletal muscle/heart isoform (Homo sapiens) (UniProt Q16816); experiment: Selectivity interaction (KinomeScan (DiscoverX)) EUB0001619a PHKG1; settings: at 1 µM

Chain of Calcium/calmodulin-dependent protein kinase type II subunit gamma (Homo sapiens) (Q13555 whole entry): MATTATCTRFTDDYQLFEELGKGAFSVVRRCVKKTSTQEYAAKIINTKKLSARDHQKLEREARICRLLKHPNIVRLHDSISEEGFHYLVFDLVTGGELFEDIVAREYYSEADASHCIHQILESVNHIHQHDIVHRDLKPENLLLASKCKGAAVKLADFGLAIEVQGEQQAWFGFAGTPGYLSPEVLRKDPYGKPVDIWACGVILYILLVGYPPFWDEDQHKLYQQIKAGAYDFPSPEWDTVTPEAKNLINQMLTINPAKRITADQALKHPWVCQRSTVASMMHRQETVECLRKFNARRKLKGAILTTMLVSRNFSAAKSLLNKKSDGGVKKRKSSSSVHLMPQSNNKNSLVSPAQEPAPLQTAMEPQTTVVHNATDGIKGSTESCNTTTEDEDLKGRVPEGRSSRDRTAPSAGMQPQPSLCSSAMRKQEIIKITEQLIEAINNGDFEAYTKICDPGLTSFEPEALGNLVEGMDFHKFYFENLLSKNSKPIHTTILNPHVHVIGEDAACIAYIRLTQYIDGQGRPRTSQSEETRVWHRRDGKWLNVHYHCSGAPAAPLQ

Structure (SMILES): O=C(NOC[C@H](O)CO)c1ccc(F)c(F)c1Nc1ccc(I)cc1F
% of control [1]: 100%
% of control [2]: 96%

Structure (SMILES): CNC(=O)Nc1ccc(-c2nc(N3CC4CCC(C3)O4)c3cnn(C4CCC5(CC4)OCCO5)c3n2)cc1
% of control [3]: 92%

% of control [4]: 100%
Structure (SMILES): CCN(CC)CCCCNc1ncc2cc(-c3cc(OC)cc(OC)c3)c(NC(=O)NC(C)(C)C)nc2n1

% of inhibition [5]: 11.4%
Structure (SMILES): CC[C@@H]1[C@H](F)C(=O)N[C@@H]1COc1nccc2cc(C(N)=O)c(OC)cc12 [ZIMLOVISERTIB]

% of control [6]: 94%
Structure (SMILES): C=CC(=O)Nc1cccc(C(=O)Nc2ccc(Nc3cc(-c4[nH]c(SC)nc4C)ccn3)cc2)c1

% of control [7]: 128%
Structure (SMILES): CC(=O)Nc1cccc(-n2c(=O)n(C3CC3)c(=O)c3c(Nc4ccc(I)cc4F)n(C)c(=O)c(C)c32)c1

Structure (SMILES): CN(C)C/C=C/C(=O)Nc1ccc(C(=O)N2CCCC(Nc3ncc(Cl)c(-c4c[nH]c5ccccc45)n3)C2)cc1 (stereo not given)
% of control [8]: 81%

Structure (SMILES): CN(C)CCOc1ccc(-c2nc(-c3ccncc3)c(-c3ccc4c(c3)CC/C4=N\O)[nH]2)cc1
% of control [9]: 78%

Structure (SMILES): C=CC(=O)Nc1cc(-n2c(=O)ccc3cnc4ccc(-c5ccc(NS(C)(=O)=O)cc5)cc4c32)ccc1C
% of control ([10]; at 1 µM): 84%
% of control ([10]; at 10 µM): 100%

Structure (SMILES): Nc1cnc(N2CCc3cc(S(=O)(=O)Nc4c(F)cc(Cl)cc4F)cc(N4CCCC4=O)c32)nc1 [TP-020n]
% of inhibition [11]: 1.45%
% of inhibition [12]: -14.3%

Structure (SMILES): N#Cc1cccc(-c2c[nH]c3ncnc(N4CCOCC4)c23)c1
% of inhibition [13]: 6%
% of control [14]: 81%
